In PubChem BioAssay AID248 (DTP/NCI, 2004):
Where “and” joins values, the source holds several entries; their conditions need not be identical. Identical values can stand only once. Inconclusive results and toxic doses are left out. No stated cut-off is given here; in the data, active means T/C of 150% or more; inactive means T/C below 125%.

System: L1210 leukemia ip in BDF1 mice, survival T/C
Assay: NCI In Vivo Anticancer Drug Screen. Data for tumor model L1210 Leukemia (intraperitoneal) in B6D2F1 (BDF1) mice
Settings: endpoint: mean survival time, higher = longer survival
Summary of the method: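 Tumor cells were implanted, animals were treated, and survival was followed. The result divides the treated measurement by the vehicle-control measurement.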

[1] = dose: 50.0 mg/kg/injection, schedule: Q01DX001 (ip), vehicle: saline
[2] = dose: 100.0 mg/kg/injection, schedule: Q01DX001 (ip), vehicle: saline
[3] = dose: 200.0 mg/kg/injection, schedule: Q01DX001 (ip), vehicle: saline
[4] = dose: 400.0 mg/kg/injection, schedule: Q01DX001 (ip), vehicle: saline
[5] = dose: 100.0 mg/kg/injection, schedule: Q04DX003 (ip), vehicle: saline
[6] = dose: 100.0 mg/kg/injection, schedule: Q04DX003 (ip), vehicle: Klucel (hydroxypropylcellulose) (HPC)
[7] = dose: 200.0 mg/kg/injection, schedule: Q04DX003 (ip), vehicle: Klucel (hydroxypropylcellulose) (HPC)
[8] = dose: 100.0 mg/kg/injection, schedule: Q01DX001 (ip), vehicle: saline with Tween-80
[9] = dose: 200.0 mg/kg/injection, schedule: Q01DX001 (ip), vehicle: saline with Tween-80

Measured: T/C

CN(C)c1ccc(N2C(=O)C=CC2=O)cc1
inactive: dose: 6.25 mg/kg/injection, schedule: Q01DX001 (ip), vehicle: saline with Tween-80 104 % of control | dose: 12.5 mg/kg/injection, schedule: Q01DX001 (ip), vehicle: saline with Tween-80 105 % of control

CC1([N+](=O)[O-])COP(=O)(Nc2ccc(Br)cc2)OC1 (stereo not given)
inactive: [1] 93 % of control | [2] 98 % of control | [3] 104 % of control | [4] 122 % of control

CC12CCC3C(CCC4=CC(=O)CCC43C)C1CCCN2 (stereo not given)
inactive: dose: 75.0 mg/kg/injection, schedule: Q01DX001 (sc), vehicle: steriod suspending solution 93 % of control | dose: 150.0 mg/kg/injection, schedule: Q01DX001 (sc), vehicle: steriod suspending solution 90 % of control

ClC(Cl)[P+](N1CCCCC1)(N1CCCCC1)N1CCCCC1
inactive: dose: 0.75 mg/kg/injection, schedule: Q04DX003 (ip), vehicle: Klucel (hydroxypropylcellulose) (HPC) 115 % of control | dose: 1.5 mg/kg/injection, schedule: Q04DX003 (ip), vehicle: Klucel (hydroxypropylcellulose) (HPC) 118 % of control | dose: 3.0 mg/kg/injection, schedule: Q04DX003 (ip), vehicle: Klucel (hydroxypropylcellulose) (HPC) 93 % of control and 118 % of control

CSc1nc(N)c(N)c(N)n1
inactive: dose: 100.0 mg/kg/injection, schedule: Q04DX002 (ip), vehicle: Klucel (hydroxypropylcellulose) (HPC) 103 % of control | dose: 200.0 mg/kg/injection, schedule: Q04DX002 (ip), vehicle: Klucel (hydroxypropylcellulose) (HPC) 110 % of control | dose: 400.0 mg/kg/injection, schedule: Q04DX002 (ip), vehicle: Klucel (hydroxypropylcellulose) (HPC) 103 % of control

CC(=O)Nc1c(Cl)c(Cl)c2c(c1Cl)Cc1cc(Cl)ccc1-2
inactive: dose: 100.0 mg/kg/injection, schedule: Q01DX009 (ip), vehicle: acetone 90 % of control | [5] 93 % of control | dose: 200.0 mg/kg/injection, schedule: Q01DX009 (ip), vehicle: acetone 93 % of control | dose: 200.0 mg/kg/injection, schedule: Q04DX003 (ip), vehicle: saline 91 % of control | dose: 400.0 mg/kg/injection, schedule: Q01DX009 (ip), vehicle: acetone 95 % of control | dose: 400.0 mg/kg/injection, schedule: Q04DX003 (ip), vehicle: saline 91 % of control

CN(C)C(=O)c1ccc[n+](Cc2ccc(Cl)c(Cl)c2)c1
inactive: [5] 88 % of control

C[C@@H]1CC[C@@]2(NC1)O[C@H]1C[C@H]3[C@@H]4CC=C5C[C@@H](O)CC[C@]5(C)[C@H]4CC[C@]3(C)[C@H]1[C@@H]2C
inactive: dose: 5.0 mg/kg/injection, schedule: Q01DX Z (sc), vehicle: steriod suspending solution 91 % of control | dose: 10.0 mg/kg/injection, schedule: Q01DX Z (sc), vehicle: steriod suspending solution 100 % of control | dose: 20.0 mg/kg/injection, schedule: Q01DX Z (sc), vehicle: steriod suspending solution 96 % of control | dose: 40.0 mg/kg/injection, schedule: Q01DX Z (sc), vehicle: steriod suspending solution 98 % of control | dose: 50.0 mg/kg/injection, schedule: Q01DX009 (ip), vehicle: saline sonified 95 % of control | dose: 100.0 mg/kg/injection, schedule: Q01DX009 (ip), vehicle: saline sonified 94 % of control | [6] 94 % of control | dose: 200.0 mg/kg/injection, schedule: Q01DX009 (ip), vehicle: saline sonified 90 % of control | [7] 99 % of control

O=P(CCc1ccccc1)(OCCCl)OCCCl
inactive: dose: 100.0 mg/kg/injection, schedule: Q04DX002 (ip), vehicle: saline with Tween-80 99 % of control | dose: 200.0 mg/kg/injection, schedule: Q04DX002 (ip), vehicle: saline with Tween-80 96 % of control | dose: 400.0 mg/kg/injection, schedule: Q04DX002 (ip), vehicle: saline with Tween-80 92 % of control

CC1CCC(C(C)C)C(N(C)Cc2cc(Cl)cc(Cl)c2O)C1 (stereo not given)
inactive: dose: 50.0 mg/kg/injection, schedule: Q01DX009 (ip), vehicle: Klucel (hydroxypropylcellulose) (HPC) 107 % of control | dose: 100.0 mg/kg/injection, schedule: Q01DX009 (ip), vehicle: Klucel (hydroxypropylcellulose) (HPC) 105 % of control | [6] 104 % of control | dose: 200.0 mg/kg/injection, schedule: Q01DX009 (ip), vehicle: Klucel (hydroxypropylcellulose) (HPC) 107 % of control | [7] 98 % of control | dose: 400.0 mg/kg/injection, schedule: Q04DX003 (ip), vehicle: Klucel (hydroxypropylcellulose) (HPC) 101 % of control

N=C(c1ccccc1)c1ccccc1
inactive: [8] 100 % of control | [9] 101 % of control | dose: 400.0 mg/kg/injection, schedule: Q01DX001 (ip), vehicle: saline with Tween-80 94 % of control

O=C(CC(=O)c1ccccc1)Nc1cccc([N+](=O)[O-])c1
inactive: dose: 100.0 mg/kg/injection, schedule: Q04DX003 (ip), vehicle: saline with Tween-80 90 % of control | dose: 200.0 mg/kg/injection, schedule: Q04DX003 (ip), vehicle: saline with Tween-80 86 % of control | dose: 400.0 mg/kg/injection, schedule: Q04DX003 (ip), vehicle: saline with Tween-80 86 % of control

CCCCCCCCCCCCCCCC=C(C)C
inactive: [8] 101 % of control | [9] 103 % of control

CCC(CCN(CC=C(C)C)CC=C(C)C)(C(N)=O)c1cccc2ccccc12 (stereo not given)
inactive: dose: 6.25 mg/kg/injection, schedule: Q01DX009 (ip), vehicle: Klucel (hydroxypropylcellulose) (HPC) 96 % of control | dose: 6.25 mg/kg/injection, schedule: Q04DX003 (ip), vehicle: Klucel (hydroxypropylcellulose) (HPC) 107 % of control | dose: 12.5 mg/kg/injection, schedule: Q01DX009 (ip), vehicle: Klucel (hydroxypropylcellulose) (HPC) 101 % of control | dose: 12.5 mg/kg/injection, schedule: Q04DX003 (ip), vehicle: Klucel (hydroxypropylcellulose) (HPC) 100 % of control | dose: 25.0 mg/kg/injection, schedule: Q01DX009 (ip), vehicle: Klucel (hydroxypropylcellulose) (HPC) 96 % of control | dose: 25.0 mg/kg/injection, schedule: Q04DX003 (ip), vehicle: Klucel (hydroxypropylcellulose) (HPC) 102 % of control

N#Cc1ccc(NC(=O)COc2cccc(Cl)c2)cc1
inactive: dose: 37.5 mg/kg/injection, schedule: Q01DX001 (ip), vehicle: saline with Tween-80 95 % of control | dose: 150.0 mg/kg/injection, schedule: Q01DX001 (ip), vehicle: saline with Tween-80 92 % of control

Cc1cc(CCNC=O)c(C)c2c1sc1ccccc12
inactive: [1] 97 % of control | [2] 97 % of control | [3] 92 % of control | [4] 94 % of control

SCc1ccc(Cl)cc1.[Pb]
inactive: dose: 100.0 mg/kg/injection, schedule: Q04DX002 (ip), vehicle: gum acacia 88 % of control | dose: 200.0 mg/kg/injection, schedule: Q04DX002 (ip), vehicle: gum acacia 98 % of control | dose: 400.0 mg/kg/injection, schedule: Q04DX002 (ip), vehicle: gum acacia 109 % of control

ClCc1cccc2c(CCl)cccc12
inactive: [1] 101 % of control | [2] 101 % of control

C=CC(COC(C)=O)N1CC1 (stereo not given)
inactive: dose: 1.0 mg/kg/injection, schedule: Q01DX Z (ip), vehicle: carboxymethylcellulose (CMC) 100 % of control | dose: 2.0 mg/kg/injection, schedule: Q01DX Z (ip), vehicle: carboxymethylcellulose (CMC) 92 % of control | dose: 4.0 mg/kg/injection, schedule: Q01DX Z (ip), vehicle: carboxymethylcellulose (CMC) 104 % of control | dose: 5.0 mg/kg/injection, schedule: Q01DX Z (oral), vehicle: saline 101 % of control | dose: 7.5 mg/kg/injection, schedule: Q01DX Z (ip), vehicle: saline 104 % of control | dose: 7.5 mg/kg/injection, schedule: Q01DX Z (oral), vehicle: saline 104 % of control | dose: 8.0 mg/kg/injection, schedule: Q01DX Z (ip), vehicle: carboxymethylcellulose (CMC) 101 % of control | dose: 10.0 mg/kg/injection, schedule: Q01DX Z (oral), vehicle: saline 104 % of control | dose: 12.0 mg/kg/injection, schedule: Q01DX Z (ip), vehicle: carboxymethylcellulose (CMC) 110 % of control | dose: 15.0 mg/kg/injection, schedule: Q01DX Z (ip), vehicle: saline 121 % of control | dose: 15.0 mg/kg/injection, schedule: Q01DX Z (oral), vehicle: saline 105 % of control | dose: 20.0 mg/kg/injection, schedule: Q01DX Z (oral), vehicle: saline 114 % of control | dose: 25.0 mg/kg/injection, schedule: Q01DX Z (ip), vehicle: carboxymethylcellulose (CMC) 96 % of control | dose: 30.0 mg/kg/injection, schedule: Q01DX Z (ip), vehicle: saline 97 % of control | dose: 40.0 mg/kg/injection, schedule: Q01DX Z (oral), vehicle: saline 116 % of control | dose: 60.0 mg/kg/injection, schedule: Q01DX Z (oral), vehicle: saline 100 % of control
